Experimental data taken from patent US9765068B2, “PRMT5 inhibitors and uses thereof” (Epizyme, Inc., priority 2012, dated 2017).

These compounds were tested against PRMT5/MEP50 (Homo sapiens (Human), UniProt O14744) (assay: PRMT5 Biochemical Assay (PRMT5/MEP50 enzyme assay on peptide substrate, 3H-SAM Flashplate)). Details: PRMT5/MEP50 4 nM, 3H-SAM 75 nM, peptide 40 nM.
From the text: General Materials. S-adenosylmethionine (SAM), S-adenosylhomocysteine (SAH), bicine, KCl, Tween20, dimethylsulfoxide (DMSO), bovine skin gelatin (BSG), and Tris(2-carboxyethyl)phosphine hydrochloride solution (TCEP) were purchased from Sigma-Aldrich at the highest level of purity possible. ^3H-SAM was purchase from American Radiolabeled Chemicals with a specific activity of 80 Ci/mmol. 384-well streptavidin Flashplates were purchased from PerkinElmer.
Substrates. Peptide representative of human histone H4 residues 1-15 was synthesized with a C-terminal linker-affinity tag motif and a C-terminal amide cap by 21st Century Biochemicals. […] The sequence was Ac-[…][K-Biot]-amide (SEQ ID NO.:3).
Full-length human MEP50 (NM_024102) clone was amplified from a human testis cDNA library incorporating a 5′ sequence encoding a 6-histidine tag (MHHHHHH) (SEQ ID NO.:5) fused directly to Arg 2 of MEP50. The amplified genes were sublconed into pENTR/D/TEV (Life Technologies) and subsequently transferred by Gateway™ attL×attR recombination to pDEST8 baculvirus expression vector (Life Technologies).
Protein Expression. Recombinant baculovirus and Baculovirus-Infected Insect Cells (BIIC) were generated according to Bac-to-Bac kit instructions (Life Technologies) and Wasilko, 2006, respectively. Protein over-expression was accomplished by infecting exponentially growing Spodoptera frugiperda (SF9) cell culture at 1.2×10^6 cell/ml with a 5000 fold dilution of BIIC stock. Infections were carried out at 27° C. for 72 hours, harvested by centrifugation, and stored at −80° C. for purification.
Protein Purification. […] Flag-PRMT5/6His-MeP50 was eluted with 300 mM Imidazole in the same buffer. […] Reference: Wasilko, D. J. and S. E. Lee: “TIPS: titerless infected-cells preservation and scale-up” Bioprocess J., 5 (2006), pp. 29-32.
General Procedure for PRMT5/MEP50 Enzyme Assays on Peptide Substrates.
The assays were all performed in a buffer consisting of 20 mM Bicine (pH=7.6), 1 mM TCEP, 0.005% BSG, and 0.002% Tween20, prepared on the day of use. Compounds in 100% DMSO (1 ul) were spotted into a polypropylene 384-well V-bottom plates (Greiner) using a Platemate Plus outfitted with a 384-channel head (Thermo Scientific). DMSO (1 ul) was added to Columns 11, 12, 23, 24, rows A-H for the maximum signal control and 1 ul of SAH, a known product and inhibitor of PRMT5/MEP50, was added to columns 11, 12, 23, 24, rows I-P for the minimum signal control. A cocktail (40 ul) containing the PRMT5/MEP50 enzyme and the peptide was added by Multidrop Combi (Thermo-Fisher). The compounds were allowed to incubate with PRMT5/MEP50 for 30 min at 25 degrees Celsius, then a cocktail (10 ul) containing ^3H-SAM was added to initiate the reaction (final volume=51 ul). The final concentrations of the components were as follows: PRMT5/MEP50 was 4 nM, ^3H-SAM was 75 nM, peptide was 40 nM, SAH in the minimum signal control wells was 100 uM, and the DMSO concentration was 1%. The assays were stopped by the addition of non-radioactive SAM (10 ul) to a final concentration of 600 uM, which dilutes the ^3H-SAM to a level where its incorporation into the peptide substrate is no longer detectable. 50 ul of the reaction in the 384-well polypropylene plate was then transferred to a 384-well Flashplate and the biotinylated peptides were allowed to bind to the streptavidin surface for at least 1 hour before being washed three times with 0.1% Tween20 in a Biotek ELx405 plate washer. The plates were then read in a PerkinElmer TopCount plate reader to measure the quantity of ^3H-labeled peptide bound to the Flashplate surface, measured as disintegrations per minute (dpm) or alternatively, referred to as counts per minute (cpm).
[formula] Where dpm=disintegrations per minute, cmpd=signal in assay well, and min and max are the respective minimum and maximum signal controls.

Sequence of PRMT5/MEP50 (O14744 other isoform, or with tags, fused parts or gaps): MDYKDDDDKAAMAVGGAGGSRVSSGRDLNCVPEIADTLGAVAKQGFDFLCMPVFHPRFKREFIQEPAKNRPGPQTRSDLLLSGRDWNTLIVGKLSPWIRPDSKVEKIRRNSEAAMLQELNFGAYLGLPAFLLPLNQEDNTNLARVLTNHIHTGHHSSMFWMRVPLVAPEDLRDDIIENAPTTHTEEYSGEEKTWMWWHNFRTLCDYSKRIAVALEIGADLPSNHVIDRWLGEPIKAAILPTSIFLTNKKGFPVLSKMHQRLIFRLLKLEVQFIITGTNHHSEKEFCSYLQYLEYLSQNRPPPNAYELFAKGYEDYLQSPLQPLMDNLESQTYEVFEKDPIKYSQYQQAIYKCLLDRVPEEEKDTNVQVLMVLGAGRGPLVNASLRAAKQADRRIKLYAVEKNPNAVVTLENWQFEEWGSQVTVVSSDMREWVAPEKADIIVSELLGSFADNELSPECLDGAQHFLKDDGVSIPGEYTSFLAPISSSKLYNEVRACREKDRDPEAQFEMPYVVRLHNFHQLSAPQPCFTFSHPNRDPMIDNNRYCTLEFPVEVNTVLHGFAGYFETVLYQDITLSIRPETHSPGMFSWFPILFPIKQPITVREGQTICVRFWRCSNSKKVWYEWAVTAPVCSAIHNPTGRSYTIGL
Sequence of PRMT5/MEP50 (Q9BQA1 other isoform, or with tags, fused parts or gaps partner): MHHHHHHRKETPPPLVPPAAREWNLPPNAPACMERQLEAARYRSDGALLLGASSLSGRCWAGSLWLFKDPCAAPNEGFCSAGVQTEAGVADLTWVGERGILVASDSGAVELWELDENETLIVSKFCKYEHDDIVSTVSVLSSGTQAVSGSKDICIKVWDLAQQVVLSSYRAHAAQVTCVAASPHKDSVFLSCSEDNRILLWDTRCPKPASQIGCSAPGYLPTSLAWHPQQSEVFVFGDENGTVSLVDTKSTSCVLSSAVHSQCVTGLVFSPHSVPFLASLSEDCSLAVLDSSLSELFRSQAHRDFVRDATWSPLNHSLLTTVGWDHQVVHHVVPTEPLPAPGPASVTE

Row | SMILES | IC50
1 | CC(Oc1ccccc1S(C)(=O)=O)C(=O)NCC(O)CN1CCc2ccccc2C1 (centres unmarked) [Compound 114] | 0.101 to 1 µM
2 | O=C(COc1ccccc1-c1c[nH]cn1)NCC(O)CN1CCc2ccccc2C1 (centres unmarked) [Compound 115] | 10 to 50 µM
3 | O=C(COc1ccccc1C1CCNC1)NCC(O)CN1CCc2ccccc2C1 (centres unmarked) [Compound 116] | 1 to 10 µM
4 | Cn1cc2c(OCC(=O)NCC(O)CN3CCc4ccccc4C3)cccc2n1 (centres unmarked) [Compound 118] | 0.101 to 1 µM
5 | CN1CCc2cccc(OCC(=O)NCC(O)CN3CCc4ccccc4C3)c2C1 (centres unmarked) [Compound 120] | 0.101 to 1 µM
6 | O=C(COc1cccc(NC2CCOCC2)n1)NCC(O)CN1CCc2ccccc2C1 (centres unmarked) [Compound 121] | 1 to 10 µM
7 | CC(=O)N1CCN(S(=O)(=O)c2ccccc2OCC(=O)NCC(O)CN2CCc3ccccc3C2)CC1 (centres unmarked) [Compound 122] | 0.101 to 1 µM
8 | O=C(COc1cccc2c1OCC(=O)N2)NCC(O)CN1CCc2ccccc2C1 (centres unmarked) [Compound 124] | 1 to 10 µM
9 | O=C(COc1cccc2[nH]c(=O)cnc12)NCC(O)CN1CCc2ccccc2C1 (centres unmarked) [Compound 125] | 1 to 10 µM
10 | CN(C)c1ncccc1OCC(=O)NCC(O)CN1CCc2ccccc2C1 (centres unmarked) [Compound 127] | 0.101 to 1 µM
11 | O=C(COc1cccc2ncc(=O)[nH]c12)NCC(O)CN1CCc2ccccc2C1 (centres unmarked) [Compound 129] | 0.101 to 1 µM
12 | NS(=O)(=O)c1cccc(OCC(=O)NCC(O)CN2CCc3ccccc3C2)c1 (centres unmarked) [Compound 131] | 1 to 10 µM
13 | O=C(COc1ccccc1C1CNC1)NCC(O)CN1CCc2ccccc2C1 (centres unmarked) [Compound 132] | 1 to 10 µM
14 | CN1CCC(c2ccccc2OCC(=O)NCC(O)CN2CCc3ccccc3C2)CC1 (centres unmarked) [Compound 134] | 0.101 to 1 µM
15 | CN1CC(c2ccccc2OCC(=O)NCC(O)CN2CCc3ccccc3C2)C1 (centres unmarked) [Compound 135] | 1 to 10 µM
16 | CN1CCC(c2ccccc2OCC(=O)NCC(O)CN2CCc3ccccc3C2)C1 (centres unmarked) [Compound 136] | 1 to 10 µM
17 | O=C(COc1ccccc1-c1ncc[nH]1)NCC(O)CN1CCc2ccccc2C1 (centres unmarked) [Compound 137] | 0.101 to 1 µM
18 | Cn1ccnc1-c1ccccc1OCC(=O)NCC(O)CN1CCc2ccccc2C1 (centres unmarked) [Compound 138] | 0.101 to 1 µM
19 | CS(=O)(=O)Nc1cccnc1OCC(=O)NCC(O)CN1CCc2ccccc2C1 (centres unmarked) [Compound 140] | 1 to 10 µM
20 | CC(C)(C)OC(=O)Nc1ccccc1OCC(=O)NCC(O)CN1CCc2ccccc2C1 (centres unmarked) [Compound 141] | 1 to 10 µM
21 | CN(c1cccc(OCC(=O)NCC(O)CN2CCc3ccccc3C2)c1)S(C)(=O)=O (centres unmarked) [Compound 142] | 0.101 to 1 µM
22 | CN(C)c1cncc(OCC(=O)NCC(O)CN2CCc3ccccc3C2)c1 (centres unmarked) [Compound 143] | 1 to 10 µM
23 | Nc1ncccc1OCC(=O)NCC(O)CN1CCc2ccccc2C1 (centres unmarked) [Compound 145] | 1 to 10 µM
24 | O=C(COc1cccc2c1CCCN2)NCC(O)CN1CCc2ccccc2C1 (centres unmarked) [Compound 150] | 0.101 to 1 µM
25 | CN1CCCc2c(OCC(=O)NCC(O)CN3CCc4ccccc4C3)cccc21 (centres unmarked) [Compound 151] | 0.101 to 1 µM
26 | O=C(COCc1cccnc1)NCC(O)CN1CCc2ccccc2C1 (centres unmarked) [Compound 152, N-(3-(3,4-dihydroisoquinolin-2(1H)-yl)-2-hydroxypropyl)-2-(pyridin-3-ylmethoxy)acetamide] | 1 to 10 µM
